US20210308096A1, “COMPOSITION FOR PREVENTING OR TREATING PRURITUS” (INDUSTRIAL COOPERATION FOUNDATION CHONBUK NATIONAL …, priority 2017, published 2021)

What was measured:
Assay type in all cases: in vivo, BALB/c mice
[1] = tested on: histamine-induced pruritus; test: Histamine-induced pruritus, number of scratching actions (MicroAct); details: mice; 1 μM and 10 μM injected subcutaneously together with 100 μg histamine; counted for 1 hour; p<0.01 versus histamine-treated group; FIG. 1
Protocol: (§1) Six-week-old, specific-pathogen-free male BALB/c mice were purchased from Orient Bio Korea Inc. (Gapyeong, Gyeonggi-do, Korea) and housed in a laminar flow cabinet. They were provided with standard solid chows ad libitum. At the onset of the test, the mice were 7-8 weeks old. All animal care and use were performed in accordance with the protocol of the Institutional Animal Care and Use Committee of the Chonbuk National University Medical School. Isoflavone-based compounds genistein, daidzein, glycitein and equol were purchased from Sigma. They were dissolved in DMSO and diluted with distilled water. […] Histamine, chloroquine and DNCB were also purchased from Sigma. Pruritus was induced by subcutaneously injecting histamine and chloroquine to the mice. Specifically, 0.1 mL of 2 mg/mL histamine and 4 mg/mL chloroquine were injected respectively. Pruritus was evaluated using MicroAct (Neuroscience, Inc., Tokyo, Japan) according to the method established by the company. The mouse was anesthetized and a magnet piece was inserted into the foot skin of the left hind leg. The mouse was put in a chamber surrounded by a coil and the number of scratching actions was recorded by a computer based on the electrical field generated by the scratching. The experimental conditions of the MicroAct were set as follows. Threshold p-p limit, 0.125 V; threshold minimum duration, 0.2 s; maximum amplitude range, 0.5 V; minimum amplitude range, 0.05 V; maximum frequency, 20 Hz; minimum frequency, 5 Hz. Recording was made only for 3 or more consecutive scratching actions. All the experiments were performed for at least 3 times and 2-3 mice were used per each group. Statistical data were represented by means and standard deviations. Statistical comparison was conducted by one-way ANOVA and the Fisher test. Significant difference between the groups was determined by the unpaired Student's t-test. The significant level of the p-value was less than 0.05. In order to measure the effect of inhibiting histamine-induced pruritus of genistein, daidzein, glycitein and equol, 100 μg of histamine was dissolved in 0.1 mL of physiological saline and injected subcutaneously to induce pruritus. After injecting each of genistein, daidzein, glycitein and equol at 1 μM and 10 μM together with the histamine, the number of scratching actions was counted for 1 hour.

[2] = tested on: chloroquine-induced pruritus; test: Chloroquine-induced pruritus, number of scratching actions (MicroAct); details: mice; 1 μM and 10 μM injected subcutaneously together with 200 μg chloroquine; counted for 1 hour; p<0.01 versus chloroquine-treated group; FIG. 2
Protocol: as §1, with “inhibiting chloroquine-induced” for “inhibiting histamine-induced”, “equol, 200” for “equol, 100”, “of chloroquine” for “of histamine”, “the chloroquine,” for “the histamine,”

DNCB-induced pruritus = test: DNCB-induced pruritus, number of scratching actions (MicroAct); details: DNCB-sensitized mice; 1 μM or 10 μM applied on the right ear with DNCB; counted for 1 hour; p<0.01 versus DNCB-treated group; FIG. 3
Protocol: Six-week-old, specific-pathogen-free male BALB/c mice were purchased from Orient Bio Korea Inc. (Gapyeong, Gyeonggi-do, Korea) and housed in a laminar flow cabinet. They were provided with standard solid chows ad libitum. At the onset of the test, the mice were 7-8 weeks old. All animal care and use were performed in accordance with the protocol of the Institutional Animal Care and Use Committee of the Chonbuk National University Medical School. Isoflavone-based compounds genistein, daidzein, glycitein and equol were purchased from Sigma. They were dissolved in DMSO and diluted with distilled water. […] Histamine, chloroquine and DNCB were also purchased from Sigma. Pruritus was induced with DNCB. Specifically, after removing hair from the right ear of the mouse, 20 μL of 1% DNCB dissolved in a mixture of olive oil and ethanol (1:4) was applied for sensitization. 10 μL of 0.5% DNCB was applied on the same ear 7 days later (Exp. Dermatol., 2002, 11:285-291). Pruritus was evaluated using MicroAct (Neuroscience, Inc., Tokyo, Japan) according to the method established by the company. The mouse was anesthetized and a magnet piece was inserted into the foot skin of the left hind leg. The mouse was put in a chamber surrounded by a coil and the number of scratching actions was recorded by a computer based on the electrical field generated by the scratching. The experimental conditions of the MicroAct were set as follows. Threshold p-p limit, 0.125 V; threshold minimum duration, 0.2 s; maximum amplitude range, 0.5 V; minimum amplitude range, 0.05 V; maximum frequency, 20 Hz; minimum frequency, 5 Hz. Recording was made only for 3 or more consecutive scratching actions. All the experiments were performed for at least 3 times and 2-3 mice were used per each group. Statistical data were represented by means and standard deviations. Statistical comparison was conducted by one-way ANOVA and the Fisher test. Significant difference between the groups was determined by the unpaired Student's t-test. The significant level of the p-value was less than 0.05. In order to measure the effect of inhibiting DNCB-induced pruritus of genistein, daidzein, glycitein and equol, 20 μL of a 1% DNCB solution was applied on the right ear of the mouse for 7 days for sensitization. 10 μL of 0.5% DNCB was applied on the same ear 7 days later, 1 μM or 10 μM genistein, daidzein, glycitein or equol and 1% DNCB dissolved in physiological saline was applied on the right ear (physiological saline was applied for a negative control group) and the number of scratching actions was counted for 1 hour.

[3] = tested on: SLIGRL-induced pruritus (agonist for the protease activated receptor 2); test: SLIGRL-induced pruritus, number of scratching actions (MicroAct); details: mice; 1 μM and 10 μM injected subcutaneously together with 20 μg SLIGRL; counted for 1 hour; p<0.05 versus SLIGRL-treated group; FIG. 4
Protocol: Six-week-old, specific-pathogen-free male BALB/c mice were purchased from Orient Bio Korea Inc. (Gapyeong, Gyeonggi-do, Korea) and housed in a laminar flow cabinet. They were provided with standard solid chows ad libitum. At the onset of the test, the mice were 7-8 weeks old. All animal care and use were performed in accordance with the protocol of the Institutional Animal Care and Use Committee of the Chonbuk National University Medical School. Isoflavone-based compounds genistein, daidzein, glycitein and equol were purchased from Sigma. They were dissolved in DMSO and diluted with distilled water. […] Histamine, chloroquine and DNCB were also purchased from Sigma. Pruritus was induced with SLIGRL. Specifically, 20 μg of SLIGRL was dissolved in 0.1 mL of physiological saline and injected subcutaneously to induce pruritus. Pruritus was evaluated using MicroAct (Neuroscience, Inc., Tokyo, Japan) according to the method established by the company. The mouse was anesthetized and a magnet piece was inserted into the foot skin of the left hind leg. The mouse was put in a chamber surrounded by a coil and the number of scratching actions was recorded by a computer based on the electrical field generated by the scratching. The experimental conditions of the MicroAct were set as follows. Threshold p-p limit, 0.125 V; threshold minimum duration, 0.2 s; maximum amplitude range, 0.5 V; minimum amplitude range, 0.05 V; maximum frequency, 20 Hz; minimum frequency, 5 Hz. Recording was made only for 3 or more consecutive scratching actions. All the experiments were performed for at least 3 times and 2-3 mice were used per each group. Statistical data were represented by means and standard deviations. Statistical comparison was conducted by one-way ANOVA and the Fisher test. Significant difference between the groups was determined by the unpaired Student's t-test. The significant level of the p-value was less than 0.05. In order to measure the effect of inhibiting pruritus induced by SLIGRL, which is an agonist for the protease activated receptor 2, of genistein, daidzein, glycitein and equol, 20 μg of SLIGRL was dissolved in 0.1 mL of physiological saline and injected subcutaneously to induce pruritus. After injecting each of genistein, daidzein, glycitein and equol at 1 μM and 10 μM together with the SLIGRL, the number of scratching actions was counted for 1 hour.

TSLP-induced pruritus = test: TSLP-induced pruritus, number of scratching actions (MicroAct); details: mice; 1 μM and 10 μM injected subcutaneously together with 0.67 μg TSLP; counted for 1 hour; p<0.05 versus TSLP-treated group; FIG. 5
Protocol: Six-week-old, specific-pathogen-free male BALB/c mice were purchased from Orient Bio Korea Inc. (Gapyeong, Gyeonggi-do, Korea) and housed in a laminar flow cabinet. They were provided with standard solid chows ad libitum. At the onset of the test, the mice were 7-8 weeks old. All animal care and use were performed in accordance with the protocol of the Institutional Animal Care and Use Committee of the Chonbuk National University Medical School. Isoflavone-based compounds genistein, daidzein, glycitein and equol were purchased from Sigma. They were dissolved in DMSO and diluted with distilled water. […] Histamine, chloroquine and DNCB were also purchased from Sigma. Pruritus was induced with TSLP. 0.67 μg of TSLP was dissolved in 0.1 mL of physiological saline and injected subcutaneously to induce pruritus. Pruritus was evaluated using MicroAct (Neuroscience, Inc., Tokyo, Japan) according to the method established by the company. The mouse was anesthetized and a magnet piece was inserted into the foot skin of the left hind leg. The mouse was put in a chamber surrounded by a coil and the number of scratching actions was recorded by a computer based on the electrical field generated by the scratching. The experimental conditions of the MicroAct were set as follows. Threshold p-p limit, 0.125 V; threshold minimum duration, 0.2 s; maximum amplitude range, 0.5 V; minimum amplitude range, 0.05 V; maximum frequency, 20 Hz; minimum frequency, 5 Hz. Recording was made only for 3 or more consecutive scratching actions. All the experiments were performed for at least 3 times and 2-3 mice were used per each group. Statistical data were represented by means and standard deviations. Statistical comparison was conducted by one-way ANOVA and the Fisher test. Significant difference between the groups was determined by the unpaired Student's t-test. The significant level of the p-value was less than 0.05. In order to measure the effect of inhibiting thymic stromal lymphopoietin (TSLP)-induced pruritus of genistein, daidzein, glycitein and equol, 0.67 μg of TSLP solution dissolved in 0.1 mL of physiological saline and injected subcutaneously to induce pruritus. After injecting each of genistein, daidzein, glycitein and equol at 1 μM and 10 μM together with the TSLP, the number of scratching actions was counted for 1 hour.

Compound | Effect of inhibiting histamine-induced pruritus (number of scratching actions) [1] | Effect of inhibiting chloroquine-induced pruritus (number of scratching actions) [2] | Effect of inhibiting DNCB-induced pruritus (number of scratching actions) (DNCB-induced pruritus) | Effect of inhibiting SLIGRL-induced pruritus (number of scratching actions) [3] | Effect of inhibiting TSLP-induced pruritus (number of scratching actions) (TSLP-induced pruritus)
O=c1c(-c2ccc(O)cc2)coc2cc(O)cc(O)c12 [Genistein, genistein] | significantly inhibited | significantly inhibited | significantly inhibited | significantly inhibited | significantly inhibited
O=c1c(-c2ccc(O)cc2)coc2cc(O)ccc12 [daidzein] | significantly inhibited | significantly inhibited | significantly inhibited | significantly inhibited | significantly inhibited
Oc1ccc([C@H]2COc3cc(O)ccc3C2)cc1 [equol] | did not inhibit | did not inhibit | did not inhibit | did not inhibit | did not inhibit
COc1cc2c(=O)c(-c3ccc(O)cc3)coc2cc1O [glycitein] | did not inhibit | did not inhibit | did not inhibit | did not inhibit | did not inhibit
